In the NIST ThermoML archive (doi:10.1016/j.fluid.2015.10.026):
Numbers after ± are expanded uncertainties.

Conditions: Liquid, Brillouin light scattering

CCOC(C)(C)C [2-ethoxy-2-methylpropane]
Conditions | speed of sound [m/s]
293.15 K, 10 kPa | 1059.2 ± 5.4
293.15 K, 1000 kPa | 1060.3 ± 5.4
293.15 K, 2500 kPa | 1070.5 ± 5.5
293.15 K, 4000 kPa | 1080.8 ± 5.5
293.15 K, 5500 kPa | 1091.1 ± 5.5
293.15 K, 7000 kPa | 1101.5 ± 5.6
293.15 K, 8500 kPa | 1111.9 ± 5.7
293.15 K, 10000 kPa | 1122.4 ± 5.7
303.15 K, 10 kPa | 1013 ± 5.2
303.15 K, 1000 kPa | 1019.4 ± 5.2
303.15 K, 2500 kPa | 1030.3 ± 5.2
303.15 K, 4000 kPa | 1041.2 ± 5.3
303.15 K, 5500 kPa | 1052 ± 5.4
303.15 K, 7000 kPa | 1062.8 ± 5.4
303.15 K, 8500 kPa | 1073.5 ± 5.5
303.15 K, 10000 kPa | 1084.2 ± 5.5
313.15 K, 10 kPa | 967.71 ± 6.7
313.15 K, 1000 kPa | 978.21 ± 5
313.15 K, 2500 kPa | 989.92 ± 5.1
313.15 K, 4000 kPa | 1001.5 ± 5.1
313.15 K, 5500 kPa | 1012.9 ± 5.2
313.15 K, 7000 kPa | 1024.2 ± 5.2
313.15 K, 8500 kPa | 1035.3 ± 5.3
313.15 K, 10000 kPa | 1046.3 ± 5.3
323.15 K, 20 kPa | 923.32 ± 5.7
323.15 K, 1000 kPa | 936.6 ± 4.8
323.15 K, 2500 kPa | 949.23 ± 4.9
323.15 K, 4000 kPa | 961.61 ± 4.9
323.15 K, 5500 kPa | 973.77 ± 5
323.15 K, 7000 kPa | 985.68 ± 5
323.15 K, 8500 kPa | 997.36 ± 5.1
323.15 K, 10000 kPa | 1008.8 ± 5.2
333.15 K, 40 kPa | 879.69 ± 5.8
333.15 K, 1000 kPa | 894.61 ± 4.6
333.15 K, 2500 kPa | 908.27 ± 4.7
333.15 K, 4000 kPa | 921.59 ± 4.7
333.15 K, 5500 kPa | 934.59 ± 4.8
333.15 K, 7000 kPa | 947.25 ± 4.9
333.15 K, 8500 kPa | 959.59 ± 4.9
333.15 K, 10000 kPa | 971.59 ± 5
343.15 K, 60 kPa | 836.71 ± 6.2
343.15 K, 1000 kPa | 852.23 ± 4.4
343.15 K, 2500 kPa | 867.04 ± 4.5
343.15 K, 4000 kPa | 881.42 ± 4.5
343.15 K, 5500 kPa | 895.38 ± 4.6
343.15 K, 7000 kPa | 908.92 ± 4.7
343.15 K, 8500 kPa | 922.03 ± 4.8
343.15 K, 10000 kPa | 934.71 ± 4.8
353.15 K, 90 kPa | 794.25 ± 4.1
353.15 K, 1000 kPa | 809.46 ± 4.2
353.15 K, 2500 kPa | 825.54 ± 4.3
353.15 K, 4000 kPa | 841.11 ± 4.3
353.15 K, 5500 kPa | 856.15 ± 4.4
353.15 K, 7000 kPa | 870.68 ± 4.5
353.15 K, 8500 kPa | 884.68 ± 4.6
353.15 K, 10000 kPa | 898.16 ± 4.6
363.15 K, 130 kPa | 752.18 ± 3.9
363.15 K, 1000 kPa | 766.3 ± 4
363.15 K, 2500 kPa | 783.78 ± 4.1
363.15 K, 4000 kPa | 800.64 ± 4.1
363.15 K, 5500 kPa | 816.89 ± 4.2
363.15 K, 7000 kPa | 832.52 ± 4.3
363.15 K, 8500 kPa | 847.54 ± 4.4
363.15 K, 10000 kPa | 861.94 ± 4.5
373.15 K, 180 kPa | 710.37 ± 3.7
373.15 K, 1000 kPa | 722.76 ± 3.8
373.15 K, 2500 kPa | 741.75 ± 3.9
373.15 K, 4000 kPa | 760.03 ± 4
373.15 K, 5500 kPa | 777.6 ± 4
373.15 K, 7000 kPa | 794.46 ± 4.2
373.15 K, 8500 kPa | 810.61 ± 4.2
373.15 K, 10000 kPa | 826.04 ± 4.3
383.15 K, 250 kPa | 668.66 ± 3.6
383.15 K, 1000 kPa | 678.84 ± 3.6
383.15 K, 2500 kPa | 699.46 ± 3.7
383.15 K, 4000 kPa | 719.28 ± 3.8
383.15 K, 5500 kPa | 738.29 ± 3.9
383.15 K, 7000 kPa | 756.49 ± 4
383.15 K, 8500 kPa | 773.88 ± 4.1
383.15 K, 10000 kPa | 790.47 ± 4.1
393.15 K, 340 kPa | 626.87 ± 3.4
393.15 K, 1000 kPa | 634.52 ± 3.4
393.15 K, 2500 kPa | 656.9 ± 3.5
393.15 K, 4000 kPa | 678.37 ± 3.6
393.15 K, 5500 kPa | 698.94 ± 3.7
393.15 K, 7000 kPa | 718.61 ± 3.8
393.15 K, 8500 kPa | 737.37 ± 3.9
393.15 K, 10000 kPa | 755.23 ± 4
403.15 K, 440 kPa | 584.83 ± 3.1
403.15 K, 1000 kPa | 589.82 ± 3.2
403.15 K, 2500 kPa | 614.07 ± 3.3
403.15 K, 4000 kPa | 637.32 ± 3.4
403.15 K, 5500 kPa | 659.57 ± 3.5
403.15 K, 7000 kPa | 680.82 ± 3.6
403.15 K, 8500 kPa | 701.07 ± 3.7
403.15 K, 10000 kPa | 720.33 ± 3.8
413.15 K, 570 kPa | 542.3 ± 3
413.15 K, 1000 kPa | 544.74 ± 3
413.15 K, 2500 kPa | 570.98 ± 3.1
413.15 K, 4000 kPa | 596.12 ± 3.2
413.15 K, 5500 kPa | 620.17 ± 3.3
413.15 K, 7000 kPa | 643.12 ± 3.5
413.15 K, 8500 kPa | 664.98 ± 3.6
413.15 K, 10000 kPa | 685.74 ± 3.7
423.15 K, 730 kPa | 499.06 ± 2.9
423.15 K, 2500 kPa | 527.62 ± 2.9
423.15 K, 4000 kPa | 554.78 ± 3
423.15 K, 5500 kPa | 580.74 ± 3.1
423.15 K, 7000 kPa | 605.52 ± 3.3
423.15 K, 8500 kPa | 629.1 ± 3.4
423.15 K, 10000 kPa | 651.49 ± 3.5
